Where two headings read alike, the source gives them in different places.
Tests used:
[1] = system: A549; assay: MTT cell proliferation test, cytotoxicity on A549 lung cancer cells; format: cell-based; details: A549, 72 hrs incubation, read-out: IC50 μmole/L, after 72 hrs incubation time
Method: (§1) IC50 Determination Using the Photometric Assay.
(§2) All cell lines, MCF7, HT29, HL60, A549 and CRL1790 were purchased from ATCC (American Cell Culture Collection). As exemplified the MCF-7 human breast cancer, the cell line was grown in Iscove's Modified Dulbecco's Medium, supplemented with 10% heat-inactivated fetal bovine serum, penicillin (100 Ul/mL), streptomycin (100 μg/mL), amphotericin (250 ng/mL), L-glutamine (2 mM) and 1% non-essential amino acids solution. The culture of HL-60 human leukemia cells was conducted in Iscove's Modified Dulbecco's Medium, supplemented with 20% heat-inactivated fetal bovine serum, penicillin (100 Ul/mL), streptomycin (100 μg/mL), amphotericin (250 ng/mL), L-glutamine (2 mM) and 1% non-essential amino acids solution.
(§3) The cells were grown at 37° C. in a humidified atmosphere containing 5% CO2. After 80% confluence was reached, the adherent MCF7, HL-60, cells were detached with a 0.25% trypsin solution and seeded in 96-well plates at a density of 5×10^4 cells/mL, 5×10^5 cells/mL, respectively.
(§4) After overnight incubation, the increasing concentrations (0.1-20 μM) of studied compounds dissolved in DMSO were added to the wells. Pure DMSO diluted at the ratio of 1:1000 (v/v) in growth media was added to control wells. After 24, 48 or 72 hours of incubation the MTT-cell proliferation test was performed.
(§5) The test exploits the ability of living cells mitochondrial dehydrogenases to convert water-soluble 3-(4,5-dimethylthiazol-2-yl)-2,5-diphenyltetrazolium bromide (MTT) to non-soluble formazan. Briefly, after 3 hours incubation of cells with MTT solution the absorbance of formazan dissolved in isopropyl alcohol was measured in a Power Wavex microplate spectrophotometer (BioTek Instruments) at 570 nm.
(§6) In order to compare the cytotoxicity of studied compounds the IC50 values (the concentrations which induce the cell viability decreased to 50% of the control) were determined. The normalized MTT data were fitted to log(inhibitor) vs. response-variable slope model (R^2>0.9) described by the Equation 1 using Prism 5 ver 5.03 (GraphPad Software, Inc):
(§7) [formula] where: V—cell viability, c—compound concentration, h—Hill coefficient.
(§8) As a result log IC50 with the standard error were calculated.

[2] = system: HT29; assay: MTT cell proliferation test, cytotoxicity on HT29 colon cancer cells; format: cell-based; details: HT29, 72 hrs incubation, read-out: IC50 μmole/L, after 72 hrs incubation time
Method: as §1, §2, §3, §4, §5, §6, §7, §8

[3] = system: MCF7; assay: MTT cell proliferation test, cytotoxicity on MCF7 breast cancer cells; format: cell-based, human; details: MCF7, 72 hrs incubation, read-out: IC50 μmole/L, after 72 hrs incubation time
Method: as §1, §2, §3, §4, §5, §6, §7, §8

[4] = system: HL60; assay: MTT cell proliferation test, cytotoxicity on HL60 leukemia cells; format: cell-based, human
Method: as §1, §2, §3, §4, §5, §6, §7, §8

[5] = system: CRL1790; assay: MTT cell proliferation test, cytotoxicity on CRL1790 normal cells; format: cell-based; details: CRL1790, 72 hrs incubation, read-out: IC50 μmole/L, after 72 hrs incubation time
Method: as §1, §2, §3
[…] Pure DMSO diluted at the ratio of 1:1000 (v/v) in growth media was added to control wells. After 24, 48 or 72 hours of incubation the MTT-cell proliferation test was performed.
as §5
as §6, with “Inc): […]” for “Inc):”
as §8

[6] = Blood, HL60, 72 hrs incubation, MTT, read-out: IC50 μmole/L, after 72 hrs incubation time

SMILES | IC50 [1] [µmol/L] | IC50 [2] [µmol/L] | IC50 [3] [µmol/L] | IC50 [4, 6] [µmol/L] | IC50 [5] [µmol/L] | IC50 ([4]; no unit or cell line printed, values match the HL60 line of Table 1, read-out: IC50) [µmol/L]
C=c1c2c(CC)c3cc(O)ccc3nc2c2cc3c(c(=O)n12)COC(=O)C3(O)CC (centres unmarked) [Compound 5, 5-methylidene-7-ethyl-10-hydroxycamptothecin] | 1.94 | 0.15 | – | – | – | –
CCc1c2c(nc3ccc(O)cc13)-c1cc3c(c(=O)n1[C@@H]2CO)COC(=O)[C@]3(O)CC [Compound 4, 5-(S)-hydroxymethyl-7-ethyl-10-hydroxycamptothecin] | 6.54 | 14.8 | 14.9 | 1.89 | – | –
CCc1c2c(nc3ccc(O)c(CN4CCC4)c13)-c1cc3c(c(=O)n1[C@@H]2CO)COC(=O)[C@]3(O)CC [Compound 7, 5-(S)-hydroxymethyl-7-ethyl-9-(N-azetidinyl)methyl-10-hydroxycamptothecin] | 1.17 | 2.5 | 6.7 | 0.11 | > 1000 | –
CCc1c2c(nc3ccc(O)cc13)-c1cc3c(c(=O)n1[C@@H]2CN1CCCC1)COC(=O)C3(O)CC (stereo partly drawn) [Compound 2, 5-(S)—(N-pyrrolidinyl)methyl-7-ethyl-10-hydroxycamptothecin] | 0.272 | 0.49 | 0.96 | 0.007 | – | –
CCc1c2c(nc3ccc(O)cc13)-c1cc3c(c(=O)n1[C@H]2CN1CCCC1)COC(=O)[C@]3(O)CC [Compound 1, 5-(R)—(N-pyrrolidinyl)methyl-7-ethyl-10-hydroxycamptothecin] | 0.204 | 0.6 | 0.81 | 0.011 | – | –
CCc1c2c(nc3ccc(O)cc13)-c1cc3c(c(=O)n1[C@H]2CO)COC(=O)C3(O)CC (stereo partly drawn) [Compound 3, 5-(R)-hydroxymethyl-7-ethyl-10-hydroxycamptothecin] | 4.27 | 9.48 | 15.9 | 0.72 | – | –
CCc1c2c(nc3ccc(O)c(CN4CCCC4)c13)-c1cc3c(c(=O)n1C2)COC(=O)C3(O)CC (centres unmarked) [CC2, (N-pyrrolidinyl)methyl-7-ethyl-10-hydroxycamptothecin, reference compound] | 0.083 | 0.24 | 1.43 | – | – | 0.014
CCc1c2c(nc3ccc(O)c(CN4CCC4)c13)-c1cc3c(c(=O)n1C2)COC(=O)C3(O)CC (centres unmarked) [CC1, (N-azetidinyl)methyl-7-ethyl-10-hydroxycamptothecin, reference compound] | 0.071 | 0.07 | 0.99 | 0.012 | – | –
CCc1c2c(nc3ccc(O)cc13)-c1cc3c(c(=O)n1C2)COC(=O)[C@]3(O)CC [SN38, 7-ethyl-10-hydroxycamptothecin] | 0.028 | 0.02 | 0.66 | 0.002 | 4.98 | –
CCc1c2c(nc3ccc(O)c(CN4CCC4)c13)-c1cc3c(c(=O)n1[C@H]2CO)COC(=O)C3(O)CC (stereo partly drawn) [Compound 6, 5-(R)-hydroxymethyl-7-ethyl-9-(N-azetidinyl)methyl-10-hydroxycamptothecin] | 5.22 | 6.98 | 11.1 | 0.33 | > 1000 | –
